# According to the supplement of paper PMC10307832:
# Experiments:
# Assay in all cases: relative viability (nuclei count vs DMSO), 5 days (fraction); higher = more cells survive
# [1] = compound: CC1=NN=C(O1)C2=NN=C(C=C2)N3CCC(CC3)OC4=C(C=CC(=C4)F)Cl + C[C@@H](Oc1cc(-c2cnn(C3CCNCC3)c2)cnc1N)c1c(Cl)ccc(F)c1Cl [Crizotinib] (partner 1 µM)
# Method in brief: (§1)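 Lung cancer cell lines were seeded in 1536-well plates and dosed by pin tool the next day, with either a single drug or a fixed anchor-drug dose combined with five library-drug doses (not always all listed) spaced in √10 steps. Five days later, one step fixed the cells and stained their nuclei (final 0.05% Triton X-100, 1% formaldehyde, 1 ug/ml Hoechst), and nuclei were counted on 4× images. Relative viability is the nuclei count in treated wells divided by the count in vehicle wells, and each value is the median of duplicate plates.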
# [2] = compound: CC(C)C[C@@H](C(=O)N[C@H](C(=O)OC1CCCC1)c1ccccc1)[C@H](O)C(=O)NO [Tosedostat] + Nc1ncn([C@H]2C[C@H](O)[C@@H](CO)O2)c(=O)n1 [Decitabine] (partner 2 µM)
# Method in brief: as §1
# [3] = compound: CC1=NN=C(O1)C2=NN=C(C=C2)N3CCC(CC3)OC4=C(C=CC(=C4)F)Cl + CC(=O)Nc1cccc(-n2c(=O)n(C3CC3)c(=O)c3c(Nc4ccc(I)cc4F)n(C)c(=O)c(C)c32)c1 [Trametinib] (partner 0.02 µM)
# Method in brief: as §1
# [4] = compound: CC(C)C[C@@H](C(=O)N[C@H](C(=O)OC1CCCC1)c1ccccc1)[C@H](O)C(=O)NO [Tosedostat] + CS(=O)(=O)N1CCN(Cc2cc3nc(-c4cccc5[nH]ncc45)nc(N4CCOCC4)c3s2)CC1 [Pictilisib] (partner 1 µM)
# Method in brief: as §1
cell line,measurement,setting,value
UMC-11,relative viability,[1]; first compound 0.253 µM,0.468
same,relative viability,[1]; first compound 0.8 µM,0.474
same,relative viability,[1]; first compound 2.53 µM,0.476
same,relative viability,[1]; first compound 8 µM,0.487
same,relative viability,[2]; first compound 0.02 µM,0.687
same,relative viability,[2]; first compound 0.06325 µM,0.575
same,relative viability,[2]; first compound 0.2 µM,0.801
same,relative viability,[2]; first compound 0.6325 µM,0.568
same,relative viability,[2]; first compound 2 µM,0.587
same,relative viability,[3]; first compound 0.253 µM,0.457
same,relative viability,[3]; first compound 0.8 µM,0.531
same,relative viability,[3]; first compound 2.53 µM,0.33
same,relative viability,[3]; first compound 8 µM,0.43
same,relative viability,[4]; first compound 0.02 µM,0.911
same,relative viability,[4]; first compound 0.06325 µM,0.807
same,relative viability,[4]; first compound 0.2 µM,0.782
same,relative viability,[4]; first compound 0.6325 µM,0.705
same,relative viability,[4]; first compound 2 µM,0.828
